Molecules are shown by their SMILES. Where a name gives a salt, the structure may show the parent alone. Active and inactive are the calls of the source.

Test [1] addresses 5-hydroxytryptamine receptor 5A (Homo sapiens, UniProt P47898). As to the kind of experiment: Counterscreen for agonists of OPRM1-OPRD1 heterodimerization: luminescence-based cell-based high throughput dose response assay to identify agonists of 5-hydroxytryptamine (serotonin) 5A receptor (HTR5A). [Related pubchem assays (depositor defined):AID504326, AID504355, AID504692, AID504904, AID504905]. The class given is functional.

Test [2] deals with T1, Short transient receptor potential channel 4 (Mus musculus, UniProt Q9QUQ5).
T1 sequence (Q9QUQ5 whole entry): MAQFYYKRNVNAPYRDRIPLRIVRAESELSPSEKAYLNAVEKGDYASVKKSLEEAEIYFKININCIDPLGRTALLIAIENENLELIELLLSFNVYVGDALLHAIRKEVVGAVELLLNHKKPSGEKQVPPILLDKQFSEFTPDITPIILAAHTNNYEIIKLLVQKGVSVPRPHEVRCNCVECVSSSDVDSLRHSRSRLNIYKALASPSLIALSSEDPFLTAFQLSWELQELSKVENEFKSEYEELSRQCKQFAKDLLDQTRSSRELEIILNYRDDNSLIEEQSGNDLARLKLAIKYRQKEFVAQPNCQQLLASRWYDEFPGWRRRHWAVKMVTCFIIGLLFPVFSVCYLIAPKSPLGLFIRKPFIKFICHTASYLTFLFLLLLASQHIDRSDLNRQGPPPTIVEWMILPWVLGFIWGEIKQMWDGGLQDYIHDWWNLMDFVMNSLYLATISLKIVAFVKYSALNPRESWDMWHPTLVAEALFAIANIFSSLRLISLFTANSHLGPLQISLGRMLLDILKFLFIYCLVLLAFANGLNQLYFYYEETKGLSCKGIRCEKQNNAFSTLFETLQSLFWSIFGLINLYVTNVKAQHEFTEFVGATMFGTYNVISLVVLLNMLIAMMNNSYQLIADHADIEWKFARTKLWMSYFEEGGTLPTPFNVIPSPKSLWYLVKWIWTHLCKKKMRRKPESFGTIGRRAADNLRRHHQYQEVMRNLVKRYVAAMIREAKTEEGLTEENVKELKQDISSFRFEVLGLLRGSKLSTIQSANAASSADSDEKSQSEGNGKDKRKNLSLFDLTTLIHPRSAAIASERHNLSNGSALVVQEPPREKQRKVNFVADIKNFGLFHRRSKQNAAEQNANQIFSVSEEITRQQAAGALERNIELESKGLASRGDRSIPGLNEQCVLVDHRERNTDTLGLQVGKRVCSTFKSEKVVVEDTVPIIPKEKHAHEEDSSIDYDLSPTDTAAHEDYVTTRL
As to the kind of experiment: mouse TRPC4 channel inhibitors, dose response, cell-based, HEK293 TRPC4/mu-opioid, Fluo-4 calcium (AID 434942).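 Also: potency of inhibitors blocking the TRPC4 calcium response.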 In kind it is functional.

The target of a further test is Mu-type opioid receptor (Homo sapiens, UniProt P35372). As to the kind of experiment: Counterscreen for agonists of heterodimerization of the mu 1 (OPRM1) and delta 1 (OPRD1) opioid receptors: Luminescence-based cell-based high throughput dose response assay to identify agonists of OPRM1 homodimerization. The class given is functional. For orientation: Counterscreens check selectivity or assay interference.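 Also: U2OS cells expressing OPRM1 and beta-arrestin as split beta-galactosidase partners.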

The target of test [3] is T1, Short transient receptor potential channel 4. As to the kind of experiment: mouse TRPC4 channel activators, dose response, cell-based, HEK293 TRPC4/mu-opioid, Fluo-4 calcium (AID 434937). The class given is functional.
Test [4] deals with Delta-type opioid receptor (Homo sapiens, UniProt P41143). The test can be described thus: Counterscreen for agonists of heterodimerization of the mu 1 (OPRM1) and delta 1 (OPRD1) opioid receptors: Luminescence-based cell-based high throughput dose response assay to identify agonists of OPRD1 homodimerization. [Related pubchem assays (depositor defined):AID504326, AID504355, AID504692, AID504904, AID504905]. The class given is functional.

For test [5], the target named is T2, Carboxy-terminal domain RNA polymerase II polypeptide A small phosphatase 1 (Homo sapiens, UniProt Q9GZU7).
T2 sequence (Q9GZU7 whole entry): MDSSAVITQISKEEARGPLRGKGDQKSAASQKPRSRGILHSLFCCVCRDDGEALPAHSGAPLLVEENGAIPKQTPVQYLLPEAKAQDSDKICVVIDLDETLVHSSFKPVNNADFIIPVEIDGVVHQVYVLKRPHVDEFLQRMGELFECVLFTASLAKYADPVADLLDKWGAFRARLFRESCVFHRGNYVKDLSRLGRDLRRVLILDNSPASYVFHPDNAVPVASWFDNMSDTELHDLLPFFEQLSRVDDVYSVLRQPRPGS
The test can be described thus: inhibitors of CTDSP1, concentration-response testing, biochemical assay, absorbance-based, actives from ultra-high-throughput screening (AID 540297). The class given is functional.

Another test is described as follows: cells. The class given is functional.
A short description of test [6]: THP-1 cell cytotoxicity, dose response, cytotoxicity control for non-replicating M. tuberculosis project (AID 489025). In kind it is functional.
Test [7] in a line: cytotoxicity toward NIH3T3 fibroblasts, dose response, counter-screen, cell-based, ATP luminescence, mouse fibroblasts (AID 2010).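 Also: cells exposed to compound for about 90 hours before reading.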 In kind it is functional.
The nature of test [8]: inhibitors of intracellular T. cruzi replication, confirmation, NIH3T3 host cells, beta-gal luminescence (AID 2044).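 Also: intracellular parasites grown in NIH/3T3 mouse fibroblasts as host cells; luminescent beta-galactosidase reporter signal from transgenic T. cruzi replicating inside host cells; inhibitors lower the luminescence signal.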 The class given is functional, cell-based.
The nature of test [9]: inhibitors of HIV Env-driven cell fusion, dose response, cherry-pick (AID 652057). The class given is functional, cell-based.
Test [10] is described as follows: inhibitors of clade B AD8 Env fusion, dose response, cell-based, cherry-pick (AID 652062).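 Also: luciferase signal from cell-cell fusion driven by HIV-1 clade B AD8 Env; potency is for inhibitors of fusion seen as a drop in luminescence.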 The class given is functional.
Test [11] is described as follows: off-target signal loss in HeLa-CEM21 co-culture – HeLa F-luc CTL cells, cherry-picked, counter-screen for HIV-1 Env fusion inhibitor project, dose response (AID 652040).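 Also: potency for signal decrease marking cytotoxic or nonspecific inhibition.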 The class given is functional, cell-based.
A further test relates to Vero. The test can be described thus: cells. The class given is functional. The settings on record: Chlorocebus sabaeus.

Sequence of Mu-type opioid receptor (P35372 whole entry): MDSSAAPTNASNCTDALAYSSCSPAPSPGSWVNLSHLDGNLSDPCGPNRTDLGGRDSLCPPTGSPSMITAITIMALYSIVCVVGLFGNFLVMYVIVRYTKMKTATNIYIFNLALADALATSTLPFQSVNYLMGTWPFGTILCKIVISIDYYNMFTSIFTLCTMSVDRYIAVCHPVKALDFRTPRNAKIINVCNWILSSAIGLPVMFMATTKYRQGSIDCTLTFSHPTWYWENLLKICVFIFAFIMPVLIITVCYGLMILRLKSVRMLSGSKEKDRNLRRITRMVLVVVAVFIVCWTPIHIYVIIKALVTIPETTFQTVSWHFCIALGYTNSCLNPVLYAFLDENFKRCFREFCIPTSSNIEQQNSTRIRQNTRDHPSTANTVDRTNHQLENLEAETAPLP
Sequence of 5-hydroxytryptamine receptor 5A (P47898 whole entry): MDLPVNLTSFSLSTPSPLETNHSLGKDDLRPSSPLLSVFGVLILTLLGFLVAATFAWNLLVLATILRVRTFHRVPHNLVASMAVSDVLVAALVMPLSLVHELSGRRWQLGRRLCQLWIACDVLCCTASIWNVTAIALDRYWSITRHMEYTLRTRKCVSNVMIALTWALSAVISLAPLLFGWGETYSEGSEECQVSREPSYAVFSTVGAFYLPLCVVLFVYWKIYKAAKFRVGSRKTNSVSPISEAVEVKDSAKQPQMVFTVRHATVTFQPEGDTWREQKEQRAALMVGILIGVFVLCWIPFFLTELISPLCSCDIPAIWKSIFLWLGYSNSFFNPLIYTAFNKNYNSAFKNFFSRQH
Sequence of Delta-type opioid receptor (P41143 whole entry): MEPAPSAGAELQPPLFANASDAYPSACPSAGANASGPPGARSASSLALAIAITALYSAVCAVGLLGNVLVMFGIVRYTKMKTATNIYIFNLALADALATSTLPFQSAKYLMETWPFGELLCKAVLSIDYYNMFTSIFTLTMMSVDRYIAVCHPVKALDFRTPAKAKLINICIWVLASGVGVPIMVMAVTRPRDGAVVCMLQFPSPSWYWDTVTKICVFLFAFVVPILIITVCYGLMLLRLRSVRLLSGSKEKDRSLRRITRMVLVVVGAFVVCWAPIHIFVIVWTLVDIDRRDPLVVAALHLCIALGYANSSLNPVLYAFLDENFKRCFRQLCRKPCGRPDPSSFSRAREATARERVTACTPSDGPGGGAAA

As for `CN(C)C(CNC(=O)c1ccc(C(F)(F)F)cc1)c1ccco1` (stereo not given), the EC50 in test [1] is > 92.4 µM (inactive); in test [2] it was 0.0533 µM (active); at Mu-type opioid receptor it was > 92.4 µM (inactive); in [3], 0.267 µM (active); in test [4] it was 91 µM (inactive).
With `O=C(O)c1cc(-c2ccc(/C=C3\NC(=O)N(c4ccccc4)C3=O)o2)ccc1Cl`, in [5], the concentration for half-maximal inhibition (IC50) was 5.09 µM (active).
Regarding `COc1ccc(C(=O)N/N=C/c2ccc(OC(=O)c3cccc4ccccc34)c([N+](=O)[O-])c2)cc1`, the IC50 in test [5] was 2.4 µM (active).
For `C/C(=N/Nc1ccnc2cc(Cl)ccc12)c1ccc(N)cc1`, the IC50 in “cells” is 29 µM (active). Further, the EC50 in [1] was > 92.4 µM (inactive); on Mu-type opioid receptor, 54.7 µM (inactive); in test [7] it was > 60 µM (not active); in test [4] it was 29.5 µM (inactive); in test [8], 3.31 µM (active). Besides, the half-maximal cytotoxic concentration (CC50) in test [6] is 23.4 µM (active).
For the compound `CSc1cccc(N2CC(C(=O)Nc3cccc(S(=O)(=O)N4CCCC4)c3)CC2=O)c1` (stereo not given), the AC50 in [9] was 17.8 µM (active); in test [10], 11.7 µM (active); in test [11] it was > 70 µM (inactive). Moreover, the IC50 in [5] was 6.81 µM (active).
As to `COc1cccc(/C=C2/SC(=S)N(CCC(=O)N3CCOCC3)C2=O)c1`, the CC50 in the test on Vero is 20.1 µM (active).
Turning to `c1ccc(C2(N3CCCCC3)CCCCC2)cc1` [PHENCYCLIDINE HYDROCHLORIDE], the EC50 in test [1] is > 92.5 µM (inactive); at Mu-type opioid receptor, 6.29 µM (active); in test [4], 33.6 µM (inactive).
Turning to `Cc1ccccc1[N+]1=C2SCCN2C(O)(c2ccccc2)C1` (stereo not given), the EC50 in test [1] was > 92.5 µM (inactive); at Mu-type opioid receptor, 18.7 µM (inactive); in [3], 0.335 µM (active); in test [4] it was > 92.5 µM (inactive).
Take `O=c1c2ccc(Cl)cc2[nH]c(=S)n1Cc1cccnc1`: the EC50 in test [1] was > 92.5 µM (inactive); at Mu-type opioid receptor it was 65.6 µM (inactive); in test [4], 43.2 µM (inactive).
Consider `CC(=O)Nc1ccc(S(=O)(=O)NCCC(=O)OCC(=O)N2CCN(C(=O)c3ccco3)CC2)cc1`, for which the IC50 in [5] is 10.3 µM (active).

By EC50 is commonly meant the concentration needed to bring the measured effect to its halfway point. For orientation: IC50 means the concentration needed to halve the response being measured. The term CC50 denotes the concentration that lowers cell viability or growth by half. For orientation: AC50 means the concentration giving half of the maximal activity seen.

For the origin of these results see ChEMBL document CHEMBL1201862, “PubChem BioAssay data set” (2004).
